Assay results: patent publication US20220324835A1 (Nurix Therapeutics, Inc., priority 2018, published 2022)

Legend:
[1] = molecular target: T1, Cbl-b (Homo sapiens, UniProt Q13191); experiment: Cbl-b activity assay (Cbl-b inhibition assay), TR-FRET of Cbl-b interaction with UbcH5B-Ub; type: biochemical; conditions: assay buffer with 100 mM NaCl, 60 nM Src kinase; read-out: Cbl-b activity IC50
How it was run: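 UbcH5B (C85K) conjugated to N-terminally Bodipy-Fluorescein-labeled ubiquitin served as the fluorescent partner. After compound preincubation, Src kinase (60 nM) with 1 mM ATP and 5 mM MgCl2 (final) was added for 1.5 h, followed by a further 1 h incubation. Some values were obtained with 50 mM NaCl and 30 nM Src.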

[2] = molecular target: T1, Cbl-b; experiment: Cbl-b inhibition assay (Cbl-b activity assay, FRET, Biological Example 1; 100 mM NaCl, 60 nM Src kinase); type: biochemical; conditions: upper bound stated in text lists; read-out: IC50 values in the Cbl-b inhibition assay of Biological Example 1
How it was run: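 N-terminally biotinylated Avi-tagged Cbl-b was mixed with Src kinase, UbcH5B covalently conjugated to Bodipy-fluorescein ubiquitin, and streptavidin-terbium. Src phosphorylation lets Cbl-b bind UbcH5B-Ub, giving terbium-fluorescein FRET; inhibition is read as loss of FRET signal.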

T1 sequence (Q13191 36-427): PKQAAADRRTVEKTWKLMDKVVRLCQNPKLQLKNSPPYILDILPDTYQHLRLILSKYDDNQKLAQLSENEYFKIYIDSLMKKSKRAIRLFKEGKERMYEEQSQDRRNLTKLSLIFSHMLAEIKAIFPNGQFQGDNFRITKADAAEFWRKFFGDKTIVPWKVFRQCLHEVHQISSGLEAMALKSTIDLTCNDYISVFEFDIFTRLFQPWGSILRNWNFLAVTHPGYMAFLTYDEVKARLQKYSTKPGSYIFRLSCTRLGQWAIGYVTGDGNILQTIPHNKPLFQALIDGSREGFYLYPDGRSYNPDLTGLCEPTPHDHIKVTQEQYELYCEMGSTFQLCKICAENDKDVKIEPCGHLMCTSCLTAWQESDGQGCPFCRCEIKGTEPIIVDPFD

SMILES | IC50 [1] [nM] | IC50 [2] [nM]
Cn1cnnc1CC1(c2cccc(N3Cc4c(cc(CN5CCC(F)CC5)cc4C4CC4)C3=O)c2)COC1 [Example 552, 4-cyclopropyl-6-((4-fluoropiperidin-1-yl)methyl)-2-(3-(3-((4-methyl-4H-1,2,4-triazol-3-yl)methyl)oxetan-3-yl)phenyl)isoindolin-1-one] | < 100 | ≤ 100
Cn1cnnc1CC1(c2cccc(N3Cc4c(cc(CN5CCc6ccncc6C5)cc4C(F)(F)F)C3=O)c2)COC1 [Example 638, 6-((3,4-dihydro-2,7-naphthyridin-2(1H)-yl)methyl)-2-(3-(3-((4-methyl-4H-1,2,4-triazol-3-yl)methyl)oxetan-3-yl)phenyl)-4-(trifluoromethyl)isoindolin-1-one] | < 100 | ≤ 100
Cn1cnnc1CC1(c2cccc(N3Cc4c(cc(CC5CNCCC5=O)cc4C(F)(F)F)C3=O)c2)COC1 (centres unmarked) [Compound 530, 2-(3-(3-((4-methyl-4H-1,2,4-triazol-3-yl)methyl)oxetan-3-yl)phenyl)-6-((4-oxopiperidin-3-yl)methyl)-4-(trifluoromethyl)isoindolin-1-one] | < 100 | ≤ 100
C[C@H](Cc1nncn1C)c1cccc(NC(=O)c2cc(C(=O)N3CC(CO)C3)ccn2)c1 [Compound 232, 4-[3-(hydroxymethyl)azetidine-1-carbonyl]-N-[3-[(2R)-1-(4-methyl-4H-1,2,4-triazol-3-yl)propan-2-yl]phenyl]pyridine-2-carboxamide] | 1000 to 3000 | ≤ 10000
CN(c1cc2c(c(C(F)(F)F)c1)CN(c1cccc([C@@](C)(F)C(F)(F)c3nncn3C)c1)C2=O)[C@@H]1CNC[C@H]1F [Example 551, 6-(((3R,4R)-4-fluoropyrrolidin-3-yl)(methyl)amino)-2-(3-((R)-1,1,2-trifluoro-1-(4-methyl-4H-1,2,4-triazol-3-yl)propan-2-yl)phenyl)-4-(trifluoromethyl)iso-indolin-1-one] | < 100 | ≤ 100
Cn1cnnc1CC1(c2cccc(N3Cc4c(cc(CN5CCOC(CC(F)(F)F)C5)cc4C(F)(F)F)C3=O)c2)COC1 (centres unmarked) [Example 715, 2-(3-(3-((4-methyl-4H-1,2,4-triazol-3-yl)methyl)oxetan-3-yl)phenyl)-6-((2-(2,2,2-trifluoroethyl)morpholino)methyl)-4-(trifluoromethyl)isoindolin-1-one] | < 100 | ≤ 100
C[C@H]1CCN(Cc2cc3c(c(C(F)(F)F)c2)CN(c2cccc(C4(Cc5nncn5C)COC4)c2)C3=O)C[C@H]1F [Example 639b, 6-(((3S,4S)-3-fluoro-4-methylpiperidin-1-yl)methyl)-2-(3-(3-((4-methyl-4H-1,2,4-triazol-3-yl)methyl)oxetan-3-yl)phenyl)-4-(trifluoromethyl)isoindolin-1-one] | < 100 | ≤ 100
CC1=C(c2cc3c(c(C(F)(F)F)c2)CN(c2cccc(C4(Cc5nncn5C)COC4)c2)C3=O)CCO1 [Example 616, 6-(2-methyl-4,5-dihydrofuran-3-yl)-2-(3-(3-((4-methyl-4H-1,2,4-triazol-3-yl)methyl)oxetan-3-yl)phenyl)-4-(trifluoromethyl)isoindolin-1-one] | < 100 | ≤ 100
Cn1cnnc1CC1(c2cccc(N3Cc4c(cc(CN5CCO[C@H](CO)C5)cc4C(F)(F)F)C3=O)c2)COC1 [Example 710, (S)-6-((2-(hydroxymethyl)morpholino)methyl)-2-(3-(3-((4-methyl-4H-1,2,4-triazol-3-yl)methyl)oxetan-3-yl)phenyl)-4-(trifluoromethyl)isoindolin-1-one] | < 100 | ≤ 100
C[C@H](Cc1nncn1C)c1cccc(NC(=O)c2cc(C(=O)N3CCC4(CCO4)C3)ccn2)c1 (stereo partly drawn) [Compound 237, N-[3-[(2R)-1-(4-methyl-4H-1,2,4-triazol-3-yl)propan-2-yl]phenyl]-4-[1-oxa-6-azaspiro[3.4]octane-6-carbonyl]pyridine-2-carboxamide] | 3000 to 10000 | ≤ 10000
Cn1cnnc1CC1(c2cccc(N3Cc4c(cc(CN5CC[C@@H]6NCCO[C@@H]6C5)cc4C(F)(F)F)C3=O)c2)COC1 (relative stereo) [Example 713, rel-6-[(4aR,8aS)-octahydropyrido[3,4-b][1,4]oxazin-6-ylmethyl]-2-(3-{3-[(4-methyl-1,2,4-triazol-3-yl)methyl]oxetan-3-yl}phenyl)-4-(trifluoromethyl)-3H-isoindol-1-one] | < 100 | ≤ 100
C[C@@H]1CN(Cc2cc3c(c(C(F)(F)F)c2)CN(c2cccc(-c4c(-c5nncn5C)cnn4C)c2)C3=O)CCO1 [Compound 524, (R)-2-(3-(l-methyl-4-(4-methyl-4H-1,2,4-triazol-3-yl)-1H-pyrazol-5-yl)phenyl)-6-((2-methylmorpholino)methyl)-4-(trifluoromethyl)isoindolin-1-one] | < 100 | ≤ 100
Cn1cnnc1CC1(c2cccc(N3Cc4c(cc(C5CCCOC5)cc4C(F)(F)F)C3=O)c2)COC1 (centres unmarked) [Example 615, 2-(3-(3-((4-methyl-4H-1,2,4-triazol-3-yl)methyl)oxetan-3-yl)phenyl)-6-(tetrahydro-2H-pyran-3-yl)-4-(trifluoromethyl)isoindolin-1-one] | < 100 | ≤ 100
Cn1cnnc1CC1(c2cccc(N3Cc4c(cc(CN5CCOC(CCO)C5)cc4C(F)(F)F)C3=O)c2)COC1 (centres unmarked) [Example 717, 6-{[2-(2-hydroxyethyl)morpholin-4-yl]methyl}-2-(3-{3-[(4-methyl-1,2,4-triazol-3-yl)methyl]oxetan-3-yl}phenyl)-4-(trifluoromethyl)-3H-isoindol-1-one] | < 100 | ≤ 100
Cn1cnnc1CC1(c2cccc(N3Cc4c(cc(CN5CCOC(C(F)F)C5)cc4C(F)(F)F)C3=O)c2)COC1 (centres unmarked) [Example 630, 6-{[2-(difluoromethyl)morpholin-4-yl]methyl}-2-(3-{3-[(4-methyl-1,2,4-triazol-3-yl)methyl]oxetan-3-yl}phenyl)-4-(trifluoromethyl)-3H-isoindol-1-one] | < 100 | ≤ 100
Cn1cnnc1CC1(c2cccc(N3Cc4c(cc(CN5CCOC(CF)C5)cc4C(F)(F)F)C3=O)c2)COC1 (centres unmarked) [Example 714, 6-((2-(fluoromethyl)morpholino)methyl)-2-(3-(3-((4-methyl-4H-1,2,4-triazol-3-yl)methyl)oxetan-3-yl)phenyl)-4-(trifluoromethyl)isoindolin-1-one] | < 100 | ≤ 100
Cc1cn(C)c(SC(C)c2ccnc(NC(=O)c3ccc4ccccc4n3)c2)n1 (centres unmarked) [Compound 129, N-(4-(1-((1,4-dimethyl-1H-imidazol-2-yl)thio)ethyl)pyridin-2-yl)quinoline-2-carboxamide] | > 10000 | ≤ 10000
CC(c1cc2c(c(C(F)(F)F)c1)CN(c1cccc(C3(C(F)(F)c4nncn4C)COC3)c1)C2=O)N1CC[C@H](F)C1 (stereo partly drawn) [Example 678, 2-(3-(3-(difluoro(4-methyl-4H-1,2,4-triazol-3-yl)methyl)oxetan-3-yl)phenyl)-6-(l-((S)-3-fluoropyrrolidin-1-yl)ethyl)-4-(trifluoromethyl)isoindolin-1-one] | < 100 | ≤ 100
CC(Sc1nncn1C)c1ccc(OC(F)(F)F)c(NC(=O)c2cccc(C(F)(F)F)n2)c1 (centres unmarked) [Compound 94, N-(5-(1-((4-methyl-4H-1,2,4-triazol-3-yl)thio)ethyl)-2-(trifluoromethoxy)phenyl)-6-(trifluoromethyl)picolinamide] | 1000 to 3000 | ≤ 10000
Cn1cnnc1CC1(c2cccc(N3Cc4c(cc(CN5CC6CC(C5)C6(F)F)cc4C(F)(F)F)C3=O)c2)COC1 [Example 640, 6-((6,6-difluoro-3-azabicyclo[3.1.1]heptan-3-yl)methyl)-2-(3-(3-((4-methyl-4H-1,2,4-triazol-3-yl)methyl)oxetan-3-yl)phenyl)-4-(trifluoromethyl)isoindolin-1-one] | < 100 | ≤ 100
CC(Sc1nncn1C)c1cncc(NC(=O)c2cccc(C(F)(F)F)n2)c1 (centres unmarked) [Compound 127, N-[5-[1-[(4-methyl-1,2,4-triazol-3-yl)sulfanyl]ethyl]-3-pyridyl]-6-(trifluoromethyl)pyridine-2-carboxamide] | 3000 to 10000 | ≤ 10000
Cn1cnnc1CC(C)(O)c1cccc(N2Cc3c(cccc3C(F)(F)F)C2=O)c1 (centres unmarked) [Compound 297, 2-(3-(2-hydroxy-1-(4-methyl-4H-1,2,4-triazol-3-yl)propan-2-yl)phenyl)-4-(trifluoromethyl)isoindolin-1-one] | 3000 to 10000 | ≤ 10000
CC(c1cc2c(c(C(F)(F)F)c1)CN(c1cccc(C3(Cc4nncn4C)COC3)c1)C2=O)n1ccnc1 (centres unmarked) [Compound 542, 6-(1-(1H-imidazol-1-yl)ethyl)-2-(3-(3-((4-methyl-4H-1,2,4-triazol-3-yl)methyl)oxetan-3-yl)phenyl)-4-(trifluoromethyl)isoindolin-1-one] | < 100 | ≤ 100
Cc1ccn(CC(C)c2cccc(NC(=O)c3cccc(C(F)(F)F)n3)c2)n1 (centres unmarked) [Compound 216, N-(3-(1-(3-methyl-1H-pyrazol-1-yl)propan-2-yl)phenyl)-6-(trifluoromethyl)picolinamide] | 3000 to 10000 | ≤ 10000
CC(Cc1nocc1CO)c1cccc(N2Cc3c(cccc3C(F)(F)F)C2=O)c1 (centres unmarked) [Compound 269, 2-(3-(1-(4-(hydroxymethyl)isoxazol-3-yl)propan-2-yl)phenyl)-4-(trifluoromethyl)isoindolin-1-one] | 1000 to 3000 | ≤ 10000
